Laboratory results: patent publication US20250312320A1, “METHOD AND TREATMENT FOR OSTEOARTHRITIS AND DISEASES OF CHONDROCYTE HYPERTROPHY” (The Royal Veterinary College, priority 2022, published 2025)
Entries after “also recorded” stand apart in the source; their conditions may differ.

Columns and labels:
[1] = system: C57/BL-6 bone marrow derived osteoclasts; assay: Primary osteoclast number and resorption on dentin discs; format: cell-based, mouse; details: 1 μM, N=8
Description: Osteoclasts were isolated from the bone marrow of the long bones of 8-week old C57/BL-6 mice and cultured for 24 hours in osteoclast basal media (MEM supplemented with 10% FBS, 2 mM L-glutamine, 1% Ab/Am). After 24 hours, 1×10^6 osteoclasts were seeded onto dentin discs in osteoclast differentiation media (basal media supplemented with 100 nM PGE2, 200 ng/ml MCSF, 3 ng/ml RANKL pH 7.3) for 24 hours before addition of 1 μM BI1347 or DMSO for 3 days (N=8). On day 5 of culture, osteoclast resorption was initiated by addition of 10 mM hydrochloric acid to acidify differentiation media to pH 7.0 for 2 days. On day 7, discs were fixed in 2.5% glutaraldehyde, tartrate resistant acid phosphatase (TRAP) stained and imaged using Axiovert Microscope at ×10 magnification to observe osteoclast resorption.
Pre-osteoclast and osteoclast numbers were counted using the automated counting method developed by Davies et al. 2021 (currently under review) using Ilastik software in Image J (Fiji, US). Resorption area on each disc was manually counted and analysed using Image J software.

[2] = system: THP-1 derived macrophages; assay: LPS stimulated THP-1 derived macrophages: gene expression; format: cell-based, human; details: 1 μM, 1 h pretreatment + 24 h LPS
Description: THP-1 monocytes were differentiated into macrophages via treatment with 50 ng/ml phorbol 12-myristate 13-acetate (PMA) in THP-1 growth media (RPMI-1640, 100 μg/ml Primocin, 10% FBS, 0.05 mM β-mercaptoethanol) for 48 hours. Macrophages were then washed twice to remove PMA containing media before a 1-hour pretreatment with 1 μM BI1347 or 100 nM MSC2530818. Inflammatory stimulation was then initiated via the addition of lug/ml lipopolysaccharide (LPS) for 24 hours in the presence of 1 μM BI1347 or 100 nM MSC2530818. Gene expression analysis was subsequently carried out as previously outlined. For MSC2530818 treated/LPS stimulated cells, media supernatant was used for IL-1β cytokine analysis quantification via ELISA (PeproTech, ABTS Human IL-1β development ELISA) as per manufacturer instructions.

[3] = system: primary canine articular chondrocytes; assay: Primary canine articular chondrocytes in chondrogenesis and IL1β OA disease model: gene expression; format: cell-based; details: 100 nM
Description: Articular cartilage was isolated, placed into a petri dish containing phosphate buffer saline (PBS) supplemented with 2% Ab/Am (PBS-Ab/Am) and transferred to a laminar flow hood for processing. Cartilage shavings were minced using a sterile scalpel to approximately 1 mm^3 and washed in fresh PBS-Ab/Am by centrifugation at 500×g for 10 minutes. Supernatant was removed and the cartilage pellet resuspended in 5 ml TrypLE™ (Gibco) before incubation at 37° C. for 10 minutes with gentle agitation. Dissociated cartilage fragments were pelleted and washed to remove excess TrypLE and resuspended in DMEM-complete media (DMEM/F12 (Gibco), 1% Ab/Am, 10% FBS) supplemented with 2 mg/ml Collagenase Type II and incubated overnight at 37° C. with gentle agitation. The cartilage digest was pelleted, washed and subsequently resuspended in DMEM-complete. Released cells were counted using a haematocytometer and seeded at 10,000 cells per cm^2. The cultures were incubated at 37° C., 5% CO2 in a humidified incubator for 2 days before refreshing DMEM-complete every 2 days until confluency. For differentiation experiments, primary chondrocytes were differentiated in DMEM/F12 containing 2% FBS, 1% Ab/Am, 1× Insulin-Transferrin-Selenium premix, 10 ng/ml TGFβ3 (primary chondrocyte differentiation media).
Additional experiments were carried out on primary chondrocytes (equine, canine and human) and ihMSC (TERT immortalised human mesenchymal stromal cell line) to investigate whether CDK8i protects from IL-1β induced degradation when added throughout the entirety of differentiation/IL-1β treatment. Briefly, ihMSCs were seeded at a density of 5×10^4 cells per 10 μl micromass and differentiated in ihMSC chondrogenic media (1% FBS, 1% Ab/Am, 1× Insulin-Transferrin-Selenium premix, 10 μM Y-27632, 100 nM dexamethasone, 50 μg/ml ascorbic acid, 20 ng/ml TGF-β3 (Peprotech)). Primary chondrocytes were seeded at 2.7×10^5 cells per 10 μl micromass and differentiated in primary chondrocyte differentiation media. All micromasses were differentiated for 12 days in the presence of 100 nM […] or DMSO. Some micromasses were processed for gene expression analysis/alcian blue staining on day 12, whilst others were treated with IL-β media (1% FBS, 1% Ab/Am, 10 ng/ml IL-1B) and CDK8i for 48-hours before processing for alcian blue staining/gene expression analysis on day 14 as previously described.

[4] = system: STR/Ort mouse (spontaneous osteoarthritis); assay: STR/Ort mouse pilot study: cartilage manifestations and gene expression markers; format: in vivo; details: 5 mg/kg oral gavage intermittently, 2 weeks
Description: The STR/Ort mouse is a spontaneous mouse model of osteoarthritis which follows a similar trajectory as primary osteoarthritis disease development as humans and companion animals. […] An initial pilot study consisting of 2 male STR/Ort mice aged 18 weeks per group was carried out. Mice were dosed 5 mg/kg […] (N=2) or DMSO (N=2) in 60% PEG400 via oral gavage 3 times a week intermittently for 2 weeks. On day 14, mice were sacrificed, and articular cartilage was harvested from the knee joint using a micro rongeur. Tissue was homogenised in Qiazol using 2.4 mm beads in pre-chilled Tissue Lyser II racks (Qiagen) at 30 Hz for 5 minutes in total with intervals for samples to be chilled on ice every 60 seconds to prevent sample heating. Homogenised samples were directly processed for RNA extraction using the Direct-Zol microprep kit (Zymo) and RNA was processed for gene expression analysis via qPCR as previous.

CN(C)C(=O)Cn1cc(-c2ccc(-c3cncc4ccccc34)cc2)cn1 [BI1347]
mature osteoclast number vs DMSO [1]: no effect; also recorded: no change
osteoclast resorptive activity, reduction vs DMSO [1]: 2.3 fold
pre-osteoclast number vs DMSO [1]: no effect; also recorded: no change
NF-κB gene expression, decrease vs DMSO [2]: 6 fold
TLR4 gene expression, decrease vs DMSO [2]: 9 fold

Cc1n[nH]c2ncc(C(=O)N3CCC[C@H]3c3ccc(Cl)cc3)cc12 [MSC2530818]
ACAN gene expression, increase vs DMSO ([3]; OA disease model (+IL1β), N=1): 3 fold
CNMD gene expression, increase vs DMSO ([3]; OA disease model (+IL1β), N=1): 6 fold
MATN3 gene expression, increase vs DMSO ([3]; OA disease model (+IL1β), N=1): 6 fold
SMOC2 gene expression, increase vs DMSO ([3]; OA disease model (+IL1β), N=1): 2 fold
COL2A1 gene expression, increase vs DMSO ([3]; OA disease model (+IL1β), ns): 13 fold
TIMP4 gene expression, increase vs DMSO ([3]; OA disease model (+IL1β), ns): 1.1 fold
ACAN gene expression, increase vs DMSO ([3]; chondrogenic (−IL1β), N=1): 2 fold
CNMD gene expression, increase vs DMSO ([3]; chondrogenic (−IL1β), N=1): 7 fold
COL2A1 gene expression, increase vs DMSO ([3]; chondrogenic (−IL1β), N=1): 5 fold
MATN3 gene expression, increase vs DMSO ([3]; chondrogenic (−IL1β), N=1): 2 fold
SMOC2 gene expression, increase vs DMSO ([3]; chondrogenic (−IL1β), N=1): 2 fold
TIMP4 gene expression, increase vs DMSO ([3]; chondrogenic (−IL1β), N=1): 4 fold
ADAMTS5 gene expression, reduction vs DMSO ([3]; disease model (+IL1β), ns): 1.4 fold
gene expression of cartilage anabolic biomarkers ([4]; N=2, not powered for significance): increased; also recorded: increase in expression
articular cartilage thickness (appearance post-dissection) ([4]; N=2, vs DMSO): appears thicker
infiltration of blood vessels in articular cartilage ([4]; male aged 18 weeks, N=2, vs DMSO): absent; also recorded: not present
